{
  "source": "patent US7666884B2",
  "about": "“N-(2-substituted phenyl)-N-methoxycarbamates and their preparation and use thereof” (priority 2005, dated 2010)",
  "key": {"wheat powdery mildew [1]": {"tested_on": "wheat powdery mildew", "assay": "Fungicidal activity tests against wheat powdery mildew (wheat seedlings sprayed at 200 mg/L, greenhouse)", "assay_type": "in vivo", "conditions": "200 mg/L spray, inoculated 24 hours later, visual assessment 7 days after treatment", "method": "Compounds for test were weighed quantitatively and dissolved into acetone of suitable volume (acetone's volume is 10% of the whole solution's volume), then diluted by water containing 0.1% (volume percent, the same below) Tween 80, into 200 mg/L. By turntable crop sprayer, wheat seedlings with 1 leaf and 1 core were treated under the spray pressure of 1.5 kg/cm^2 and the spray volume of about 1000 L/hm^2, then naturally dry, 24 hours later wheat powdery mildew spore was inoculated, and then continue being incubated in greenhouse. Assessment of efficacy was carried out by visual observation 7 days later after treatment."}, "Rice blast": {"tested_on": "Rice blast", "assay": "microbe, parasite or virus in culture", "assay_type": "cell-based"}, "wheat powdery mildew [2]": {"tested_on": "wheat powdery mildew", "assay": "Protective activity test against wheat powdery mildew", "assay_type": "in vivo", "conditions": "for control %: protective, assessed 7 days later"}, "[3]": {"tested_on": "corn curvalaria leaf spot", "assay": "In vitro fungicidal activity test, PDA mycelium growth inhibition method", "assay_type": "cell-based"}, "Cucumber anthracnose": {"tested_on": "Cucumber anthracnose", "assay": "In vitro fungicidal activity test, PDA mycelium growth inhibition method", "assay_type": "cell-based"}, "Cucumber wilt blight": {"tested_on": "Cucumber wilt blight", "assay": "In vitro fungicidal activity test, PDA mycelium growth inhibition method", "assay_type": "cell-based", "conditions": "27° C., 3-4 days, read-out: Effect of mycelium growth inhibition (%)"}, "Rice sheath blight": {"tested_on": "Rice sheath blight", "assay": "In vitro fungicidal activity test, PDA mycelium growth inhibition method", "assay_type": "cell-based"}, "Rice false smut": {"tested_on": "Rice false smut", "assay": "In vitro fungicidal activity test, PDA mycelium growth inhibition method", "assay_type": "cell-based"}, "wheat powdery mildew [4]": {"tested_on": "wheat powdery mildew", "assay": "Curative activity test against wheat powdery mildew", "assay_type": "in vivo", "conditions": "for control %: curative, sprayed 4 days after inoculation"}, "Wheat root rot": {"tested_on": "Wheat root rot", "assay": "In vitro fungicidal activity test, PDA mycelium growth inhibition method", "assay_type": "cell-based", "method": "(§1) PDA mycelium growth inhibition method was used for this test. Compound 13 (content 95%) was weighed quantitatively and dissolved in acetone of suitable volume (acetone's volume is 10% of the whole solution's volume), then diluted with water containing 0.1% Tween 80 into the solution of the medicament at the needed concentration, and then diluted with the same water into a series of concentration for tests. The medicament for test diluted by water was added quantitatively into the heating full-nutrition culture medium, to form culture medium including the medicament at a series of concentration, and then poured into 9-cm culture dish, after cooling, inoculated with the pathogen cake (diameter 0.5 cm) for test which was incubated in vitro, each treatment was repeated tree times. After treatment, placed in growth chamber in 27° C., 3-4 days later, observe the growth of the blank contrast fungi colony, the diameter of fungi colony was investigated and measured, and corrected inhibition ratio was calculated."}, "Cucumber scab": {"tested_on": "Cucumber scab", "assay": "In vitro fungicidal activity test, PDA mycelium growth inhibition method", "assay_type": "cell-based", "method": "as §1"}, "[5]": {"tested_on": "Wheat Fusarium Head Blight", "assay": "microbe, parasite or virus in culture", "assay_type": "cell-based", "conditions": "read-out: Effect of mycelium growth inhibition (%)"}, "[6]": {"conditions": "Pyricularia oryzae, read-out: Effect of mycelium growth inhibition (%)"}, "[7]": {"conditions": "0.1 mg/L, 27° C., 3-4 days, read-out: Effect of mycelium growth inhibition (%)"}, "[8]": {"conditions": "1 mg/L, 27° C., 3-4 days, read-out: Effect of mycelium growth inhibition (%)"}, "[9]": {"conditions": "10 mg/L, 27° C., 3-4 days, read-out: Effect of mycelium growth inhibition (%)"}},
  "data": [
    {"molecule": "COC(=O)N(OC)c1ccccc1CNc1c(Cl)c(F)nc(F)c1Cl", "note": "[Compound 49, Methyl N-(2-((3,5-dichloro-2,6-difluoropyridin-4-yl)aminomethyl)phenyl)-N-methoxycarbamate]", "values": [
      {"measurement": "melting point", "value": "82 to 83", "unit": "°C"},
      {"measurement": "control %", "setting": "wheat powdery mildew [1]", "value": 85, "unit": "%"}
    ]},
    {"molecule": "COC(=O)N(OC)c1ccccc1COc1nc(Cl)c(Cl)cc1Cl", "note": "[Compound 13, Methyl N-methoxy-N-(2-((3,5,6-trichloropyridin-2-yl)oxymethyl)phenyl)carbamate]", "values": [
      {"measurement": "inhibition at 0.1 µg/mL", "setting": "Rice blast; [6]", "value": 36.6, "unit": "%"},
      {"measurement": "inhibition at 1 µg/mL", "setting": "Rice blast; [6]", "value": 62.6, "unit": "%"},
      {"measurement": "inhibition at 10 µg/mL", "setting": "Rice blast; [6]", "value": 77.2, "unit": "%"},
      {"measurement": "fungicidal activity (in words)", "setting": "Rice blast; rice blast, in vitro", "value": "outstanding"},
      {"measurement": "control %", "setting": "wheat powdery mildew [2]; concentration 0.78 mg/L", "value": 100, "unit": "%"},
      {"measurement": "control %", "setting": "wheat powdery mildew [2]; concentration 1.56 mg/L", "value": 100, "unit": "%"},
      {"measurement": "control %", "setting": "wheat powdery mildew [2]; concentration 3.125 mg/L", "value": 100, "unit": "%"},
      {"measurement": "control %", "setting": "wheat powdery mildew [2]; concentration 6.25 mg/L", "value": 100, "unit": "%"},
      {"measurement": "control %", "setting": "wheat powdery mildew [2]; concentration 12.5 mg/L", "value": 100, "unit": "%"},
      {"measurement": "preventative activity compared with the standard chemical (in words)", "setting": "wheat powdery mildew [2]; versus Kresoxim-methyl, 0.78-12.5 mg/L", "value": "obviously better than the one of the standard chemical"},
      {"measurement": "inhibition at 0.1 µg/mL", "setting": "[3]; [7]", "value": 55.4, "unit": "%"},
      {"measurement": "inhibition at 1 µg/mL", "setting": "[3]; [8]", "value": 56.2, "unit": "%"},
      {"measurement": "inhibition at 10 µg/mL", "setting": "[3]; [9]", "value": 70.2, "unit": "%"},
      {"measurement": "fungicidal activity (in words)", "setting": "[3]; in vitro", "value": "outstanding"},
      {"measurement": "inhibition at 0.1 µg/mL", "setting": "Cucumber anthracnose; Cucumber anthracnose, 0.1 mg/L, 27° C., 3-4 days, read-out: Effect of mycelium growth inhibition (%)", "value": 42.8, "unit": "%"},
      {"measurement": "inhibition at 1 µg/mL", "setting": "Cucumber anthracnose; Cucumber anthracnose, 1 mg/L, 27° C., 3-4 days, read-out: Effect of mycelium growth inhibition (%)", "value": 62.8, "unit": "%"},
      {"measurement": "inhibition at 10 µg/mL", "setting": "Cucumber anthracnose; Cucumber anthracnose, 10 mg/L, 27° C., 3-4 days, read-out: Effect of mycelium growth inhibition (%)", "value": 72.4, "unit": "%"},
      {"measurement": "fungicidal activity (in words)", "setting": "Cucumber anthracnose; cucumber anthracnose, in vitro", "value": "outstanding"},
      {"measurement": "melting point", "value": "94 to 95", "unit": "°C"},
      {"measurement": "inhibition at 0.1 µg/mL", "setting": "Cucumber wilt blight; 0.1 mg/L", "value": 27.1, "unit": "%"},
      {"measurement": "inhibition at 1 µg/mL", "setting": "Cucumber wilt blight; 1 mg/L", "value": 33.6, "unit": "%"},
      {"measurement": "inhibition at 10 µg/mL", "setting": "Cucumber wilt blight; 10 mg/L", "value": 51.4, "unit": "%"},
      {"measurement": "inhibition at 0.1 µg/mL", "setting": "Rice sheath blight; Rice sheath blight, 0.1 mg/L, 27° C., 3-4 days, read-out: Effect of mycelium growth inhibition (%)", "value": 42.7, "unit": "%"},
      {"measurement": "inhibition at 1 µg/mL", "setting": "Rice sheath blight; Rice sheath blight, 1 mg/L, 27° C., 3-4 days, read-out: Effect of mycelium growth inhibition (%)", "value": 59.2, "unit": "%"},
      {"measurement": "inhibition at 10 µg/mL", "setting": "Rice sheath blight; Rice sheath blight, 10 mg/L, 27° C., 3-4 days, read-out: Effect of mycelium growth inhibition (%)", "value": 78.6, "unit": "%"},
      {"measurement": "fungicidal activity (in words)", "setting": "Rice sheath blight; rice sheath blight, in vitro", "value": "outstanding"},
      {"measurement": "inhibition at 0.1 µg/mL", "setting": "Rice false smut; Rice false smut, 0.1 mg/L, 27° C., 3-4 days, read-out: Effect of mycelium growth inhibition (%)", "value": 19.5, "unit": "%"},
      {"measurement": "inhibition at 1 µg/mL", "setting": "Rice false smut; Rice false smut, 1 mg/L, 27° C., 3-4 days, read-out: Effect of mycelium growth inhibition (%)", "value": 42.8, "unit": "%"},
      {"measurement": "inhibition at 10 µg/mL", "setting": "Rice false smut; Rice false smut, 10 mg/L, 27° C., 3-4 days, read-out: Effect of mycelium growth inhibition (%)", "value": 79.2, "unit": "%"},
      {"measurement": "fungicidal activity (in words)", "setting": "Rice false smut; rice false smut, in vitro", "value": "outstanding"},
      {"measurement": "control %", "setting": "wheat powdery mildew [4]; concentration 0.78 mg/L", "value": 10, "unit": "%"},
      {"measurement": "control %", "setting": "wheat powdery mildew [4]; concentration 1.56 mg/L", "value": 35, "unit": "%"},
      {"measurement": "control %", "setting": "wheat powdery mildew [4]; concentration 3.125 mg/L", "value": 70, "unit": "%"},
      {"measurement": "control %", "setting": "wheat powdery mildew [4]; concentration 6.25 mg/L", "value": 100, "unit": "%"},
      {"measurement": "control %", "setting": "wheat powdery mildew [4]; concentration 12.5 mg/L", "value": 100, "unit": "%"},
      {"measurement": "curative activity compared with the standard chemical (in words)", "setting": "wheat powdery mildew [4]; versus kresoxim-methyl", "value": "better than the one of standard chemical"},
      {"measurement": "inhibition at 0.1 µg/mL", "setting": "Wheat root rot; Wheat root rot, 0.1 mg/L, 27° C., 3-4 days, read-out: Effect of mycelium growth inhibition (%)", "value": 32.6, "unit": "%"},
      {"measurement": "inhibition at 1 µg/mL", "setting": "Wheat root rot; Wheat root rot, 1 mg/L, 27° C., 3-4 days, read-out: Effect of mycelium growth inhibition (%)", "value": 46.3, "unit": "%"},
      {"measurement": "inhibition at 10 µg/mL", "setting": "Wheat root rot; Wheat root rot, 10 mg/L, 27° C., 3-4 days, read-out: Effect of mycelium growth inhibition (%)", "value": 61.1, "unit": "%"},
      {"measurement": "fungicidal activity (in words)", "setting": "Wheat root rot; wheat root rot, in vitro", "value": "outstanding"},
      {"measurement": "inhibition at 0.1 µg/mL", "setting": "Cucumber scab; [7]", "value": 28.7, "unit": "%"},
      {"measurement": "inhibition at 1 µg/mL", "setting": "Cucumber scab; [8]", "value": 50, "unit": "%"},
      {"measurement": "inhibition at 10 µg/mL", "setting": "Cucumber scab; [9]", "value": 65, "unit": "%"},
      {"measurement": "fungicidal activity (in words)", "setting": "Cucumber scab; in vitro", "value": "outstanding"},
      {"measurement": "inhibition at 0.1 µg/mL", "setting": "[5]", "value": 20.3, "unit": "%"},
      {"measurement": "inhibition at 1 µg/mL", "setting": "[5]", "value": 21.1, "unit": "%"},
      {"measurement": "inhibition at 10 µg/mL", "setting": "[5]", "value": 42.9, "unit": "%"},
      {"measurement": "control %", "setting": "wheat powdery mildew [1]", "value": 100, "unit": "%"}
    ]},
    {"molecule": "CO/N=C(/C(=O)OC)c1ccccc1COc1ccccc1C", "note": "[Kresoxim-methyl, reference compound]", "values": [
      {"measurement": "control %", "setting": "wheat powdery mildew [2]; concentration 0.78 mg/L", "value": 15, "unit": "%"},
      {"measurement": "control %", "setting": "wheat powdery mildew [2]; concentration 1.56 mg/L", "value": 40, "unit": "%"},
      {"measurement": "control %", "setting": "wheat powdery mildew [2]; concentration 3.125 mg/L", "value": 70, "unit": "%"},
      {"measurement": "control %", "setting": "wheat powdery mildew [2]; concentration 6.25 mg/L", "value": 98, "unit": "%"},
      {"measurement": "control %", "setting": "wheat powdery mildew [2]; concentration 12.5 mg/L", "value": 100, "unit": "%"},
      {"measurement": "control %", "setting": "wheat powdery mildew [4]; concentration 0.78 mg/L", "value": 0, "unit": "%"},
      {"measurement": "control %", "setting": "wheat powdery mildew [4]; concentration 1.56 mg/L", "value": 10, "unit": "%"},
      {"measurement": "control %", "setting": "wheat powdery mildew [4]; concentration 3.125 mg/L", "value": 15, "unit": "%"},
      {"measurement": "control %", "setting": "wheat powdery mildew [4]; concentration 6.25 mg/L", "value": 75, "unit": "%"},
      {"measurement": "control %", "setting": "wheat powdery mildew [4]; concentration 12.5 mg/L", "value": 100, "unit": "%"}
    ]}
  ]
}
